Columns and labels:
B16 tumor cells [1] = assay: Animal test of regulating micro-heterology variation (B16 tumor cells inoculated on hind legs); assay type: in vivo, rats; details: 7 days, 3 times per day; for control of micro-heterology variation compared with the control group: rats inoculated with B16 tumor cells, intra-peritoneal, 1 ml
Excerpt: In control group without the administration of the compound of formula (1), many proliferative corpuscles appeared in at least 40 among 50 rats within 1-3 days after the tumor cells were inoculated; many immature cells appeared within 3-5 days; and visible solid tumors finally appeared within about 10 days.

B16 tumor cells [2] = assay: Cytological test of regulating micro-heterology variation; assay type: cell-based; details: final concentration 1 g/100 ml, incomplete 1640 medium, continued culture more than 48 hours; control cells could not proliferate
Protocol: Conventional incomplete 1640 culture media were used for cell culture, and B16 tumor cells (commericially obtained from the tumor cell library of Shanghai Institute of Cytobiology) were inoculated on said media. After continue culture for more than 48 hours, the micro-heterology variation of cells and the control effects of N-acetyl-D-glucosamine thereon were observed under a condition where metabolic wastes affected the growth environment. […] The control cells cultured without N-acetyl-D-glucosamine could not proliferate on the same culture media under same conditions.

[3] = Treatment of a patient with systemic lupus erythematosus; assay type: in vivo, human; details: one patient, capsules 100 mg, 3 times per day, 7 days
Protocol: Patient who had definite systemic lupus erythematosus, was administered with capsules of the compound of formula (1) for consecutive 7 days, 3 times per day, and 100 mg every time, during the period of hospitalization.

Proteus Mirabilis = assay: Promoting wave test (bio-wave model); assay type: cell-based; details: final concentration 0.5% in LB plate, 37° C., 9 hours, compared with control sample
Excerpt: • 1. […] (+). […] Experimental results and evaluation:

[4] = in vivo
Excerpt: The toxicological test of the compound of formula (I) includes: • 1. Acute toxicity test: including tests of oral administration, intravenous injection administration, and maximum limit amount for administration; • 2. Ames test; • 3. Micronucleus test of mouse bone marrow cell; • 4. Abnormality test of mouse sperm; • 5. Aberration test of mouse testis chromosome; • 6. Chronic lethal test; • 7. Sub-chronic toxicity (feed for 90 days) test; • 8. Traditional deformity-inducing test.

[5] = Treatment of a patient with hyperthyroidism; assay type: in vivo, human; details: one patient, capsules 100 mg, 3 times per day, 7 days
Protocol: Patient was administered with capsules of the compound of formula (1) for consecutive 7 days, 3 times per day, and 100 mg every time, during the period of treating diarrhea.

| Compound | control of micro-heterology variation compared with the control group (B16 tumor cells [1]) | cell proliferation under a condition where metabolic wastes affected the growth environment (B16 tumor cells [2]) | number of rats in which solid tumor did not appear (B16 tumor cells [1]; 50 rats, 5% aqueous solution intra-peritoneally, 1 ml every time) | patient's symptom [3] | bio-wave pattern of bacterial growth (promoting wave function) (Proteus Mirabilis) | dosage at which the acute toxicosis reaction had not appeared [4] | therapeutical effect on hyperthyroidism (confirmed by T3 and T4 in serum) [5] |
| --- | --- | --- | --- | --- | --- | --- | --- |
| CC(=O)N[C@H]1C(O)O[C@H](CO)[C@@H](O)[C@@H]1O.Cl (stereo partly drawn) [N-acetyl-D-glucosamine hydrochloride] | exhibited function of controlling micro-heterology variation | cells could proliferate continuously |  |  |  |  |  |
| CC(=O)N[C@@H]1[C@@H](O)[C@H](O)[C@@H](CO)O[C@H]1O [compound of formula (I), N-acetyl-D-glucosamine] | could control the micro-heterology variation | cell number stably increased with the culture time | 45 | remitted in some extent | finer wave mode | more than 2 g/kg | better effect of treating hyperthyroidism |
